A short description of data set [1]: Pharmacokinetic test in rats. The format is in vivo. Particulars: male, SD, rat, plasma; for Cmax: read-out: C0 or Cmax; for bioavailability: PO 5 mg/kg vs IV 1 mg/kg. The protocol: Test objective: test compounds were given to SD rats via single-dose intravenous and intragastric administration, the concentrations of the test compounds in plasma of rats were measured, and the pharmacokinetic characteristics and bioavailability of test compounds in rats were evaluated.
Test animals: male SD rats, about 220 g, 6-8 weeks old, six rats/compound, purchased from Chengdu Ddossy Experimental Animals Co., Ltd.
Test method: on the day of the test, 6 SD rats were randomly grouped according to their body weights. The rats were fasted with water available for 12-14 h one day before the administration, and were fed 4 h after the administration. The administration was performed according to Table 5.
Before and after the administration, 0.1 mL of blood was taken from the orbits of the rats under isoflurane anaesthesia, and placed in an EDTAK2 centrifuge tube. Centrifugation was performed at 5000 rpm at 4° C. for 10 min, and plasma was collected.
Time points for sample collection in group G1 comprise 0 min, 5 min, 15 min, 30 min, 1 h, 2 h, 4 h, 6 h, 8 h and 24 h.
Time points for sample collection in group G2 comprise 0 min, 15 min, 30 min, 1 h, 2 h, 4 h, 6 h, 8 h and 24 h.
30 μL of each of plasma samples, standard curve samples and quality control samples was taken, and 200 μL of acetonitrile solution containing an internal standard was added, and the resulting mixture was homogeneously mixed by vortex and centrifuged at 4° C. at 12000 rpm for 10 min. 170 μL of the supernatant was taken to a 96-well plate, and LC-MS/MS analysis was performed, wherein the sample size was 2 μL.
The main pharmacokinetic parameters were analyzed by a non-compartmental model using WinNonlin 8.0 software.

Data set [2] deals with T1, autocrine motility factor (Homo sapiens, UniProt Q13822).
T1 construct: Whole blood was anticoagulated with heparin and centrifuged, and then plasma was collected; from tissue; host or cells: pooled human plasma (heparin-anticoagulated whole blood)
Nature of the data set: Inhibition of LPA formation in mixed ex vivo human plasma. As to conditions: 37° C., 2 h. The format is biochemical. How it is done: Autocrine motility factor is a phosphodiesterase in plasma that converts lysophosphatidylcholine (LPC) to lysophosphatidic acid (LPA). Therefore, the formation of LPA can be used to evaluate the potency of an autocrine motility factor inhibitor. The potency of the compound in mixed ex vivo human plasma was evaluated.
Whole blood was anticoagulated with heparin and centrifuged, and then plasma was collected. 5 μL of gradient-diluted test compounds or DMSO was added to 95 μL of plasma and incubated at 37° C. for 2 h. After that, a stop buffer (40 mM disodium hydrogen phosphate buffer, containing 30 mM of citric acid, pH=4) was added. LPA in plasma was detected by LC-MSMS before and after incubation. In order to determine the concentration of LPA 18:2 or LPA 20:4 in the plasma in study, calibration standard substances at 20000 ng/mL, 10000 ng/mL, 5000 ng/ml, 2000 ng/ml, 1000 ng/mL, 500 ng/mL, 200 ng/ml, 100 ng/mL, 50 ng/ml, 20 ng/mL and 10 ng/ml for LPA 18:2 or LPA 20:4 were prepared by performing serial dilution in butanol. 3 μL of calibration standard solution was added to 27.0 μL of blank plasmas in each 1.5 mL microcentrifuge tube to produce 1× calibration standard substances. 30.0 μL of standard substances or plasma in study was added to each 1.5 mL microcentrifuge tube. 200 μL of butanol (containing 25.0 ng/mL LPA 17:0 for internal control) was added to each 1.5 mL microcentrifuge tube containing the plasma in study or calibration standard substance. Vortex oscillation was performed for 1 min, and centrifugation was performed at 10000 rpm for 10 min. 180 μL of the supernatant was transferred to a 96-well plate, and LC/MS/MS was used together with the standard substance to quantify the concentration of LPA 18:2 in the plasma. In short, 8 μL of the solution was injected, and LC-MS/MS analysis using an ACQUITY UPLC BEH C18 column (2.1×50 mm, 1.7 μm) was performed, wherein mobile phase A [20 mM NH4OAC aqueous solution (0.1% FA)] and mobile phase B [5 mM NH4OAC aqueous solution/0.2% FA in ACN=5:95] were used. The parameters of a mass spectrometer for LPA 18:2 were optimized by means of deprotonation of molecular ions. For LPA 18:2 at m/z 433.2([M−H]−), LPA 20:4 at 457.2, and LPA 18:2 and LPA 20:4 both at m/z 152.8, abundant product ions were obtained. Quantitative data were obtained in a multiple reaction monitoring (MRM) negative electrospray ionization mode.
The inhibition rates of compounds at different concentrations on LPA formation were determined by comparing the changes of LPA levels in incubated and unincubated plasma. The IC50 of the compounds was calculated as a calculation inhibition rate, and the relative concentration at each well=the concentration at each well−the average concentration at baseline.
Inhibition rate %=(average relative concentration at control well−average relative concentration at test well)/average relative concentration at control well×100%. The curve was plotted with the inhibition rates as a y axis and the compound concentrations as an x axis, and fitting was performed by GraphPad Prism7.0 using log (inhibitor) and normalized response (variable slope).

Setting [3] is: LPA 18:2 by LC-MS/MS, read-out: IC50 for inhibiting LPA formation (18:2).
[4] abbreviates: LPA 20:4 by LC-MS/MS, read-out: IC50 for inhibiting LPA formation (20:4).

Like-named read-outs stand apart in the source and are kept apart here.

The values that follow come from patent publication US20240317736A1, “DEUTERATED DERIVATIVE AS ATX INHIBITOR, AND APPLICATION THEREOF” (Xizang Haisco Pharmaceutical Co., Ltd., priority 2020, published 2024).

One may read the AUC as concentration integrated over time. Low values mean less exposure, high ones more exposure. The half-life is the time needed for the level to fall by half in the phase considered. One may read the Cmax as the highest concentration seen after dosing. As a reminder, the Tmax is the time at which the peak concentration occurs. As usually defined, the bioavailability is dose-corrected exposure relative to a reference, in per cent. Usually IC50 stands for the midpoint of a concentration-inhibition curve. On to `[2H]C([2H])([2H])C([2H])([2H])c1nn2cc(F)c(N3CCN(CC(=O)N4CC(O)C4)CC3)cc2c1N(C)c1nc(-c2ccc(F)cc2)c(C#N)s1` [Compound 1, 2-((2-(ethyl-d5)-6-fluoro-5-(4-(2-(3-hydroxyazetidin-1-yl)-2-oxoethyl)piperazin-1-yl)pyrazolo[1,5-a]pyridin-3-yl)(methyl)amino)-4-(4-fluorophenyl)thiazole-5-carbonitrile], for which, in data set [1] (IV 1 mg/kg), the AUC came out at 1060 ± 124 ng·h/mL, the half-life is 2.6 ± 0.61 h and the highest concentration (Cmax) came out at 967 ± 106 ng/mL. For the same compound, in data set [1] (PO 5 mg/kg), the AUC was 1170 ± 46 ng·h/mL, the Tmax turned out to be 4 ± 2 h, the half-life was 6.4 ± 2.4 h and the Cmax amounted to 181 ± 10 ng/mL. In data set [1], this compound yielded a bioavailability of 22.1 ± 0.87%. In addition, in data set [2] (setting [3]), the IC50 stood at 46 nM. Further, the half-inhibitory concentration (IC50) in data set [2] (setting [4]) is 48.5 nM.

With `[2H]C([2H])([2H])N(c1nc(-c2ccc(F)cc2)c(C#N)s1)c1c(C([2H])([2H])C([2H])([2H])[2H])nn2cc(F)c(N3CCN(CC(=O)N4CC(O)C4)CC3)cc12` [Compound 2, 2-((2-(ethyl-d5)-6-fluoro-5-(4-(2-(3-hydroxyazetidin-1-yl)-2-oxoethyl)piperazin-1-yl)pyrazolo[1,5-a]pyridin-3-yl)(methyl-d3)amino)-4-(4-fluorophenyl)thiazole-5-carbonitrile], in data set [1] (IV 1 mg/kg), the AUC came out at 1330 ± 83 ng·h/mL, the half-life is 2.4 ± 0.35 h and the Cmax was found to be 1030 ± 62 ng/mL. Moreover, in data set [1] (PO 5 mg/kg), the AUC came out at 2570 ± 449 ng·h/mL, the Tmax is 4.33 ± 2.9 h, the half-life is 2.87 ± 0.15 h and the Cmax amounted to 297 ± 105 ng/mL. In data set [1], the bioavailability was found to be 38.6 ± 6.7%. Further, the IC50 in data set [2] (setting [3]) turned out to be 52 nM. Also, in data set [2] (setting [4]), the IC50 was 55.3 nM.

For `[2H]C1([2H])N(CC(=O)N2CC(O)C2)C([2H])([2H])C([2H])([2H])N(c2cc3c(N(C)c4nc(-c5ccc(F)cc5)c(C#N)s4)c(CC)nn3cc2F)C1([2H])[2H]` [Compound 4, 2-((2-ethyl-6-fluoro-5-(4-(2-(3-hydroxyazetidin-1-yl)-2-oxoethyl)piperazin-1-yl-2,2,3,3,5,5,6,6-d8)pyrazolo[1,5-a]pyridin-3-yl)(methyl)amino)-4-(4-fluorophenyl)thiazole-5-carbonitrile], the IC50 in data set [2] (setting [3]) is 51.8 nM; in data set [2] (setting [4]) it was 54.8 nM.

`[2H]c1c([2H])c(-c2nc(N(C)c3c(CC)nn4cc(F)c(N5CCN(CC(=O)N6CC(O)C6)CC5)cc34)sc2C#N)c([2H])c([2H])c1F` [Compound 9, 2-((2-ethyl-6-fluoro-5-(4-(2-(3-hydroxyazetidin-1-yl)-2-oxoethyl)piperazin-1-yl)pyrazolo[1,5-a]pyridin-3-yl)(methyl)amino)-4-(4-fluorophenyl-2,3,5,6-d4)thiazole-5-carbonitrile]: in data set [1] (IV 1 mg/kg), the AUC worked out at 943 ± 109 ng·h/mL, the half-life is 1.93 ± 0.072 h and the Cmax turned out to be 748 ± 187 ng/mL. Besides, in data set [1] (PO 5 mg/kg), the AUC is 2420 ± 860 ng·h/mL, the Tmax came to 1.17 ± 0.76 h, the half-life was 2.43 ± 0.33 h and the Cmax was 399 ± 137 ng/mL. This compound registered a bioavailability in data set [1] of 51.3 ± 18%.

Consider `[2H]c1c([2H])c(-c2nc(N(c3c(CC)nn4cc(F)c(N5CCN(CC(=O)N6CC(O)C6)CC5)cc34)C([2H])([2H])[2H])sc2C#N)c([2H])c([2H])c1F` [Compound 10, 2-((2-ethyl-6-fluoro-5-(4-(2-(3-hydroxyazetidin-1-yl)-2-oxoethyl)piperazin-1-yl)pyrazolo[1,5-a]pyridin-3-yl)(methyl-d3)amino)-4-(4-fluorophenyl-2,3,5,6-d4)thiazole-5-carbonitrile], for which, in data set [1] (IV 1 mg/kg), the AUC was 1050 ± 84 ng·h/mL, the half-life is 2.05 ± 0.29 h and the Cmax was found to be 813 ± 85 ng/mL. For the same compound, in data set [1] (PO 5 mg/kg), the AUC worked out at 1960 ± 858 ng·h/mL, the Tmax amounted to 2.83 ± 2 h, the half-life was 2.63 ± 0.071 h and the Cmax was 234 ± 136 ng/mL. Further, the bioavailability in data set [1] worked out at 37.3 ± 6%.
